# Results: article PMC4508061, “Selectivity Profiling and Biological Activity of Novel β-Carbolines as Potent and Selective DYRK1 Kinase Inhibitors” (PLoS ONE, 2015)
# Like-named read-outs stand apart in the source and are kept apart here.
# How the values were obtained:
# [1] = biological target: T1, DYRK1A (Homo sapiens, UniProt Q13627); assay: Kinase-GLO luminescent kinase assay; format: biochemical; settings: 1 μM compound; means of at least 3 measurements
# T1 construct: purchased ProQinase (Freiburg, Germany)
# Method: (§1) Bacterial expression plasmids for GST-DYRK1A-ΔC and GST-DYRK2 have been described earlier. […] Expression in logarithmically growing E. coli culture was performed for 3 h at 37°C (GST-DYRK1A-ΔC and GST-DYRK2), 3 h at 26°C (GST-HIPK2cat), over night at 28°C (GST-CLK1cat) or over night at room temperature (GST-DYRK1Bcat).
# (§2) Compounds were screened for inhibitory effects against GST-DYRK1A-ΔC, GST-DYRK1Bcat, GST-DYRK2, GST-CLK1cat or GST-HIPK2cat using the Kinase-GLO Luminescent Kinase Assay from Promega. Assays were performed in a total volume of 10 μL in kinase-buffer (25 mM Hepes pH 7.4, 0.5 mM DTT, 5 mM MgCl2, 5 μM ATP) with appropriate peptide substrates (20 μM DYRKtide for the DYRKs and 100 μM DYRKtide for HIPK2, […]; or 100 μM RS domain-derived peptide for CLK1, […]). Assays were started with this amount of a kinase preparation that consumed approximately 90% of the ATP in the assay (linear range of the kinase titration curve). The reactions were run at room temperature for 30 min before 10 μL Kinase-GLO reagent was added. After incubation at room temperature for additional 10 min, luminescence was recorded for 1 s.
# [2] = biological target: T2, DYRK2 (Homo sapiens, UniProt Q92630); assay: Kinase-GLO luminescent kinase assay; format: biochemical; settings: 1 μM compound; means of at least 3 measurements
# T2 construct: purchased ProQinase (Freiburg, Germany)
# T2 sequence (Q92630 1-601): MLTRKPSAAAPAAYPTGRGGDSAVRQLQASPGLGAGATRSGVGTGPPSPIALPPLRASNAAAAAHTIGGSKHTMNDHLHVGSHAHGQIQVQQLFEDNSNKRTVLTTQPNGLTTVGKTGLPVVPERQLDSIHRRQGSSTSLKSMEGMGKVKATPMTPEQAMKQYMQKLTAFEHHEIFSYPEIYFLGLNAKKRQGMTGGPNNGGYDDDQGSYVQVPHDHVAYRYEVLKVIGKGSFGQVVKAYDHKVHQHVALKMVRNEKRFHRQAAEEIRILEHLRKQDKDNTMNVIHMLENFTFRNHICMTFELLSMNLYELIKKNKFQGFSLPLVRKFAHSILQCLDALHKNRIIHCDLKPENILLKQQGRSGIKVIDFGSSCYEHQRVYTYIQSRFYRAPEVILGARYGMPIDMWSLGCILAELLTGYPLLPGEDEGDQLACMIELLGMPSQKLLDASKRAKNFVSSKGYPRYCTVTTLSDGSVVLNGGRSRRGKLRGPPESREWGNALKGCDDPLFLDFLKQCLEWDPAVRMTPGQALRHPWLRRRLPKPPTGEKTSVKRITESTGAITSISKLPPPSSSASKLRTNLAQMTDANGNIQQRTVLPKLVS
# Method: as §1, §2
# [3] = biological target: DYRK1B (Homo sapiens, UniProt Q9Y463); assay: Kinase-GLO luminescent kinase assay; format: biochemical; design: made in house; host or cells: E. coli; settings: 1 μM compound; means of at least 3 measurements
# Method: as §1, §2
# [4] = biological target: T3, HIPK2 (Homo sapiens, UniProt Q9H2X6); assay: Kinase-GLO luminescent kinase assay; format: biochemical; design: made in house; host or cells: E. coli; settings: 10 μM compound; means of at least 3 measurements
# Method: as §1, §2
# Target sequence in this assay (Q9H2X6 180-533): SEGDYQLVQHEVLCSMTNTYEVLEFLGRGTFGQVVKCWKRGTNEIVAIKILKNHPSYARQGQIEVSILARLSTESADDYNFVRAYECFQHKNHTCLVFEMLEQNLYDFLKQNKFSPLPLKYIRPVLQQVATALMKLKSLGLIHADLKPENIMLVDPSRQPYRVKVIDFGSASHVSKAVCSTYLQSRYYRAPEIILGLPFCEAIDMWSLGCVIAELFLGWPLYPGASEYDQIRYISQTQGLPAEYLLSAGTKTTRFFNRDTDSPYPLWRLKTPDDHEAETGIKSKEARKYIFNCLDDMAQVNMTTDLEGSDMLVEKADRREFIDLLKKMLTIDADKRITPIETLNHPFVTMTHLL
# [5] = biological target: T4, CLK1 (Homo sapiens, UniProt P49759); assay: Kinase-GLO luminescent kinase assay; format: biochemical; design: made in house; host or cells: E. coli; settings: 1 μM compound; means of at least 3 measurements
# Method: as §1, §2
# Target sequence in this assay (P49759 141-484): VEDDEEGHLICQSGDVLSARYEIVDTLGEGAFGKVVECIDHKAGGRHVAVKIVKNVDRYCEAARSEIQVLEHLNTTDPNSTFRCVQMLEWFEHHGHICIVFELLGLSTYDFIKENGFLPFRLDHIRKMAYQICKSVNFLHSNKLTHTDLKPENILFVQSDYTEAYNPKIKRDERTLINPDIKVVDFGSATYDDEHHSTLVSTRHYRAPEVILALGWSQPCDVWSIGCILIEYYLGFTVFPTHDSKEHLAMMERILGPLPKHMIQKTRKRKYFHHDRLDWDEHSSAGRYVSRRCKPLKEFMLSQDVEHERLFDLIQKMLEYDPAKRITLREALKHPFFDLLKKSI
# [6] = tested on: HeLa cells; assay: Cell viability XTT assay; format: cell-based; settings: 3 days
# [7] = tested on: SH-SY5Y cells; assay: Cell viability XTT assay; format: cell-based; settings: 3 days
# [8] = tested on: PC12 cells; assay: Cell viability XTT assay; format: cell-based; settings: 3 days
# [9] = biological target: T3, HIPK2; design: purchased ProQinase (Freiburg, Germany); settings: 10 μM; cited from earlier work
# Target sequence in this assay (Q9H2X6 whole entry): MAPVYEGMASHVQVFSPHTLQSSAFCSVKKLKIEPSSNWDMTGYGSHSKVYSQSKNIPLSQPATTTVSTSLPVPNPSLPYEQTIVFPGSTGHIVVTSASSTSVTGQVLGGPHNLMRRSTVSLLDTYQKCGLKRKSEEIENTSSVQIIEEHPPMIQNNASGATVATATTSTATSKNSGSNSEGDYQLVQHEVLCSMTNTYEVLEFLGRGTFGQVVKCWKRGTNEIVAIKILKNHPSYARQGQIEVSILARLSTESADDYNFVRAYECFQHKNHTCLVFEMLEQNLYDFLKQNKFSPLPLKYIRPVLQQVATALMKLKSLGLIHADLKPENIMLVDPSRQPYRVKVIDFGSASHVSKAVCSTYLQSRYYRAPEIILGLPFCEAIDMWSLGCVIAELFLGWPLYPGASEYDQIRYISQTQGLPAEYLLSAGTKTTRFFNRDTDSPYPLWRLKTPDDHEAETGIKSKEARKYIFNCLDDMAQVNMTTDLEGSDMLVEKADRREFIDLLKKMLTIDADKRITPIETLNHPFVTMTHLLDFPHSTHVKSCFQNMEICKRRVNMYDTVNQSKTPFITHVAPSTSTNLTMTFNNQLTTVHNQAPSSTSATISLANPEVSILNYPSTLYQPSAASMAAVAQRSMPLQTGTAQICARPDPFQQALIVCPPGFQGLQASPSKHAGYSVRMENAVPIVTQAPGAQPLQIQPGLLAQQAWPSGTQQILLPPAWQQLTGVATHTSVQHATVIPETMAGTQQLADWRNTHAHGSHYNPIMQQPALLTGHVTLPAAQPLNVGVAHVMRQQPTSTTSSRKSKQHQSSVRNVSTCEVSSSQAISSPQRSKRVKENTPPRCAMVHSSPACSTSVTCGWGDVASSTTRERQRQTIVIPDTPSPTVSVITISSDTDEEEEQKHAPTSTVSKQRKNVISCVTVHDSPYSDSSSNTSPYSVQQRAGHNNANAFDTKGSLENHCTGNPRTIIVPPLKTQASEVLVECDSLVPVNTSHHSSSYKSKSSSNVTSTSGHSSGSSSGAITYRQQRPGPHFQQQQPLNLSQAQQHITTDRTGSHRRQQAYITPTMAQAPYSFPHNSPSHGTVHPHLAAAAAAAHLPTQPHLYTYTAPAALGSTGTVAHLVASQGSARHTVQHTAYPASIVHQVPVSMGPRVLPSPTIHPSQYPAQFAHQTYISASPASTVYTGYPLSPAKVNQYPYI
# [10] = tested on: DYRK1A; settings: 10 μM; cited from earlier work
# [11] = biological target: HIPK1 (Homo sapiens, UniProt Q86Z02); design: purchased ProQinase (Freiburg, Germany); settings: 10 μM; cited from earlier work
# [12] = biological target: T5, HIPK4 (Homo sapiens, UniProt Q8NE63); design: purchased ProQinase (Freiburg, Germany); settings: 10 μM; cited from earlier work
# T5 sequence (Q8NE63 1-616): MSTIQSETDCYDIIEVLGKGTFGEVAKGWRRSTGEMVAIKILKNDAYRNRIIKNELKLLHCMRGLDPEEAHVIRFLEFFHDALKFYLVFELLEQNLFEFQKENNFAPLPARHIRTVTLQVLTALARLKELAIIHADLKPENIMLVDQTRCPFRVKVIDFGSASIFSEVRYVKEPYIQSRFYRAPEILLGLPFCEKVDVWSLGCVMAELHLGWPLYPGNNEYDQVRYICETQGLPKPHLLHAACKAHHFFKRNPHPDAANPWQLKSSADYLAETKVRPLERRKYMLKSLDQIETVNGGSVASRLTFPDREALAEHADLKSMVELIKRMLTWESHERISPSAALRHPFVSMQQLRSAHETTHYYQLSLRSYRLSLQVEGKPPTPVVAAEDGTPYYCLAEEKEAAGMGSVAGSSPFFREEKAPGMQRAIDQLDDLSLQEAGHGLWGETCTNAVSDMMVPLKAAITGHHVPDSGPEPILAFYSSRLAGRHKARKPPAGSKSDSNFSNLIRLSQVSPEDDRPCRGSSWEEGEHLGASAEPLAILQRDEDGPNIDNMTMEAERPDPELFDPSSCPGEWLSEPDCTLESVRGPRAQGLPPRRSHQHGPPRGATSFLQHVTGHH
# [13] = biological target: T4, CLK1; design: purchased ProQinase (Freiburg, Germany); settings: 10 μM; cited from earlier work
# [14] = biological target: PIM3 (Homo sapiens, UniProt Q86V86); design: purchased ProQinase (Freiburg, Germany); settings: 10 μM; cited from earlier work
# [15] = biological target: T6, CLK3 (Homo sapiens, UniProt P49761); settings: 10 μM; cited from earlier work
# T6 construct: purchased ProQinase (Freiburg, Germany)
# [16] = biological target: IRAK1 (Homo sapiens, UniProt P51617); design: purchased ProQinase (Freiburg, Germany); settings: 10 μM; cited from earlier work
# [17] = biological target: PIM2 (Homo sapiens, UniProt Q9P1W9); design: purchased ProQinase (Freiburg, Germany); settings: 10 μM; cited from earlier work
# [18] = biological target: PIM1 (Homo sapiens, UniProt P11309); design: purchased ProQinase (Freiburg, Germany); settings: 10 μM; cited from earlier work
# [19] = biological target: HIPK3 (Homo sapiens, UniProt Q9H422); design: purchased ProQinase (Freiburg, Germany); settings: 10 μM; cited from earlier work
# [20] = Cell viability XTT assay; format: cell-based; settings: human, HeLa, 1 μM, read-out: Viability of treated cells relative to untreated control
# [21] = Cell viability XTT assay; format: cell-based; settings: human, SH-SY5Y, 1 μM, read-out: Viability of treated cells relative to untreated control
# [22] = Cell viability XTT assay; format: cell-based; settings: rat, PC12, 1 μM, read-out: Viability of treated cells relative to untreated control
# Chain of HIPK1 (Q86Z02 whole entry): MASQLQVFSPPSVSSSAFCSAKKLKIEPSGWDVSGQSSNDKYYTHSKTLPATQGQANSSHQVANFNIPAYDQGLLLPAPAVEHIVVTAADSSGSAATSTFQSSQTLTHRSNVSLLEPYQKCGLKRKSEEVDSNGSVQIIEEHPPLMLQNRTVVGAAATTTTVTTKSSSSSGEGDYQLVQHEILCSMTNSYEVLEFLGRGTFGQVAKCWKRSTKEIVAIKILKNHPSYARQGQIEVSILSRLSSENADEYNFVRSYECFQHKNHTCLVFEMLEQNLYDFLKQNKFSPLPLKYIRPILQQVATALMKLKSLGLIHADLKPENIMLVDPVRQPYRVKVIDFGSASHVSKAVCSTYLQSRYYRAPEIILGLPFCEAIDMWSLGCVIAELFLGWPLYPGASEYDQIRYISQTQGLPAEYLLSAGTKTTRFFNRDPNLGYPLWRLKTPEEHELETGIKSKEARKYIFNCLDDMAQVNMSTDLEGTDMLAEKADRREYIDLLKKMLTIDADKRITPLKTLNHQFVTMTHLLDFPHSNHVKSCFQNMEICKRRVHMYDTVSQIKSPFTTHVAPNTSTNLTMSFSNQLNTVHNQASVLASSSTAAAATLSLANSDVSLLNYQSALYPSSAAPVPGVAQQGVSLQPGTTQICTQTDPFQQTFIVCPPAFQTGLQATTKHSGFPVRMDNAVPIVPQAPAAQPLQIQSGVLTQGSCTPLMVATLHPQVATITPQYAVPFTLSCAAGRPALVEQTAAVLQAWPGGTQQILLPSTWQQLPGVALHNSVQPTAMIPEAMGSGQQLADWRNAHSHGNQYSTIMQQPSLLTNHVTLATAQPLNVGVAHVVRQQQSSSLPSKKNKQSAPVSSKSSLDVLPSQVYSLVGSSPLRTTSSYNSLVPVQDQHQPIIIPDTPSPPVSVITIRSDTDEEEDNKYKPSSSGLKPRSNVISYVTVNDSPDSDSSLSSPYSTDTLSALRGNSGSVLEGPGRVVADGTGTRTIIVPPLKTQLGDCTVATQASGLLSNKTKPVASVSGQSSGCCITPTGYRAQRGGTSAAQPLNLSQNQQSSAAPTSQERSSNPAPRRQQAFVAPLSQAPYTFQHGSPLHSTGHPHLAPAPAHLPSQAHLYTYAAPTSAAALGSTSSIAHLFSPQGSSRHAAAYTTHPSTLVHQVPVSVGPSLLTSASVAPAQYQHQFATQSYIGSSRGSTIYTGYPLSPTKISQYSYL
# Chain of PIM2 (Q9P1W9 whole entry): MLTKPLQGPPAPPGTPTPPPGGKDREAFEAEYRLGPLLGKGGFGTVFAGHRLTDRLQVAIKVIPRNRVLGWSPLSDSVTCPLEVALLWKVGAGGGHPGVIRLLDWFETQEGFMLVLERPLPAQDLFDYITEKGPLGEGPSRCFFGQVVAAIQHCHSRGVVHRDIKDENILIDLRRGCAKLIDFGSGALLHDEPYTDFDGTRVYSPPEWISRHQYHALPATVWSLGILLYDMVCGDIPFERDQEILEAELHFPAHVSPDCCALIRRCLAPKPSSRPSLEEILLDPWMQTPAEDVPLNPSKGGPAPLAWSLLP
# Chain of IRAK1 (P51617 whole entry): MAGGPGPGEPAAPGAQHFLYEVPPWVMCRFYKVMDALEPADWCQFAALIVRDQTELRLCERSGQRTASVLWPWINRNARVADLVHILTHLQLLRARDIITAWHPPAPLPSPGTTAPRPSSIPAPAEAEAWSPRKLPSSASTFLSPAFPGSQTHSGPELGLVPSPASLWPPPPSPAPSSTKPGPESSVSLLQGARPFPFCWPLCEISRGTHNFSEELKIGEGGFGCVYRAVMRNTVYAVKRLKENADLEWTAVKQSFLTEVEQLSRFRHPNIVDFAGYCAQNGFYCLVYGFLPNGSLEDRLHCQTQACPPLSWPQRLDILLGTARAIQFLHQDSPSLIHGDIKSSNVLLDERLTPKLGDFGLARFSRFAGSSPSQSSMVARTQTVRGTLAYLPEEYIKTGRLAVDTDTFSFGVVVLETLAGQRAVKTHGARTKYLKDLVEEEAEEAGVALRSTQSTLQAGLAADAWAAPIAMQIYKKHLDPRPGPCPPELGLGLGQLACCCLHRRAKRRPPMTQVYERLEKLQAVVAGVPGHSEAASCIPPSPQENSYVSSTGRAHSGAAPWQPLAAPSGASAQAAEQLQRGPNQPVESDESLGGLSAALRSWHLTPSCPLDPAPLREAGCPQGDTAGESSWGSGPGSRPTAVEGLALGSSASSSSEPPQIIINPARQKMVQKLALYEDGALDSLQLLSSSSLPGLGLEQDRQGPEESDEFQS
# Chain of PIM1 (P11309 whole entry): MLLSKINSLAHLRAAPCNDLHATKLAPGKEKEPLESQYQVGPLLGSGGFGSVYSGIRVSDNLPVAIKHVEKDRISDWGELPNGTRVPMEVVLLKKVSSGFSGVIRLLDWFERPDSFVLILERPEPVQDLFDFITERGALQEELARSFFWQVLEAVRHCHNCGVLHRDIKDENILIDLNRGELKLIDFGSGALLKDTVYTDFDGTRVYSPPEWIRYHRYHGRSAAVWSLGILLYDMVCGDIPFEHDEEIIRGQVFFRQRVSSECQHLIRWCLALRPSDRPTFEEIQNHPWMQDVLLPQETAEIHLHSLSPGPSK
SMILES,Residual activity (% of control) DYRK1A [1],Residual activity (% of control) DYRK2 [2],Residual activity (% of control) DYRK1B [3],Residual activity (% of control) HIPK2 [4],Residual activity (% of control) CLK1 [5],Residual activity (% of control) [9],Residual activity (% of control) [10],Residual activity (% of control) [11],Residual activity (% of control) [12],Residual activity (% of control) [14],Residual activity (% of control) [16],Residual activity (% of control) [17],also measured
C#CCn1c2cc(OC)ccc2c2ccnc(Cl)c21 [AnnH74],12 % of control,85 % of control,35 % of control,97 % of control,46 % of control,–,–,–,–,–,–,–,–
"Nc1ncnc2c1c(I)cn2[C@@H]1O[C@H](CO)[C@@H](O)[C@H]1O [IoT, 5-iodotubercidin, reference compound]",13 % of control,10 % of control,4 % of control,20 % of control,4 % of control,–,–,–,–,–,–,–,"Viability of treated cells relative to untreated control ([6]; 1 μM): 67%; Viability of treated cells relative to untreated control ([6]; 3 μM): 16%; Viability of treated cells relative to untreated control ([6]; 10 μM): 18%; Viability of treated cells relative to untreated control ([7]; 1 μM): 13%; Viability of treated cells relative to untreated control ([7]; 3 μM): 10%; Viability of treated cells relative to untreated control ([7]; 10 μM): 15%; Viability of treated cells relative to untreated control ([8]; PC12, 1 μM): 62%; Viability of treated cells relative to untreated control ([8]; PC12, 3 μM): 17%; Viability of treated cells relative to untreated control ([8]; PC12, 10 μM): 5%"
O=C1NC(Nc2ccccc2)=N/C1=C\c1ccc2c(c1)OCO2 [L41],–,–,–,–,–,11 % of control,0 % of control,1 % of control,44 % of control,27 % of control,3 % of control,41 % of control,Residual activity (% of control) [13]: 0 % of control; Residual activity (% of control) [15]: 2 % of control
"CN1C(=O)/C(=C/c2ccc3c(c2)OCO3)N=C1N [Leucett-amine B, Leucettamine B]",–,–,–,–,–,60 % of control,2 % of control,34 % of control,91 % of control,71 % of control,100 % of control,82 % of control,Residual activity (% of control) [18]: 73 % of control; Residual activity (% of control) [19]: 45 % of control
"CN[C@@H]1C[C@H]2O[C@@](C)([C@@H]1OC)n1c3ccccc3c3c4c(c5c6ccccc6n2c5c31)C(=O)NC4 [Staurosporine, reference compound]",–,–,–,–,–,–,–,–,–,–,–,–,"viability at 3 days, 1 µM [20]: 8%; viability at 3 days, 1 µM [21]: 6%; viability at 3 days, 1 µM [22]: 18%"
